Assays:
Rattus norvegicus = details: inhalation
Colinus virginianus = details: acute, oral, mortality; for LC50: diet
Anas platyrhynchos = details: short-term; oral; feed; mortality
[1] = reproduction developmental, mortality

Structure (SMILES) | NOAEL (Rattus norvegicus; chronic, duration: 2 years) | NOAEL (Rattus norvegicus; [1]) | NOAEL (Rattus norvegicus; subchronic, duration: 90 days) | LC50 (Colinus virginianus) | LD50 (Colinus virginianus) | LC50 (Anas platyrhynchos)
P [Phosphine] | 1.1 mg/kg-day | 1.9 mg/kg-day | 1.1 mg/kg-day | 124 mg/kg | < 9.2 mg/kg-day | 762 mg/kg
[Ca+2].[Ca+2].[Ca+2].[P-3].[P-3] [Tricalcium diphosphide] | 1.1 mg/kg-day | 1.9 mg/kg-day | 1.1 mg/kg-day | 330 mg/kg | < 24.7 mg/kg-day | 2040 mg/kg
